Assay results as given in US8664245B2, “Fumarate salts of a histamine H3 receptor antagonist” (Sanofi, priority 2009, dated 2014).

Experiments:
Type in all cases: physicochemical
[1] = Dynamic Vapor Sorption (DVS) water sorption profile
Protocol: The water sorption profile of a compound of the invention is determined using a SMS Instruments Dynamic Vapor Sorption Analyzer (DVS) Model DVS-Advantage. Relative humidity (RH) and weight are calibrated using standards. The powder of the relevant compound of the invention is loaded and dried at 0% RH for 3 hours prior to starting the experiment. The RH is stepped from 0.1 to 94.4% in 11 steps. The specimen weight is considered constant at each step when percent mass change is less than 0.01% over a 5-minute interval with a minimum absolute equilibration time of 15 minutes and maximum equilibration time of 180 minutes.

[2] = Stability testing: storage at 60° C. and ambient RH for two weeks; details: solid, ambient RH, 14 days
Protocol: Stability Testing 1. Storage at 60° C. and Ambient RH for Two Weeks.
Approximately 400 mg of the difumarate monohydrate salt was weighed into a scintillation vial and placed into an oven set to 60° C. The sample was tested for appearance, then diluted with ethanol to approximately 1 mg/mL and analyzed for related substances and optical enantiomer by HPLC.

[3] = Stability testing: storage at 60° C./80% RH for two weeks; details: solid, 14 days
Protocol: 2. Storage at 60° C./80% RH and Ambient RH for Two Weeks.
A glass desiccation chamber was pre-equilibrated overnight with a saturated KBr solution to 79.3% RH within an […] oven. Approximately 400 mg of the difumarate monohydrate was weighed into a scintillation vial and placed into the chamber, which was then sealed to maintain the environment. Samples were tested for appearance, then diluted with ethanol to approximately 1 mg/mL and analyzed for related substances and optical enantiomer by HPLC.

[4] = Stability testing: storage at 80° C./80% RH for 4 days; details: solid
Protocol: 3. Storage at 80° C./80% RH for 4 Days
A glass desiccation chamber was pre-equilibrated overnight with a saturated KBr solution to 79.3% RH within an 80° C. oven. Approximately 100 mg of the difumarate monohydrate salt was weighed into respective scintillation vials and these vials were placed into the chamber, which was then sealed to maintain the environment. The sample was tested on day 4 for appearance, then diluted with ethanol to approximately 1 mg/mL and analyzed by HPLC versus a control (time 0) sample.

In the case of CN1CCC[C@H]1CCNS(=O)(=O)c1ccc2c(c1)CN(CC1CCCCC1)CC2.O=C(O)/C=C/C(=O)O [difumarate monohydrate salt, 2-(cyclohexylmethyl)-N-{2-[(2S)-1-methylpyrrolidin-2-yl]ethyl}-1,2,3,4-tetrahydroisoquinoline-7-sulfonamide difumarate monohydrate], the “Change in Mass (%) - dry, Desorption” value ([1]; 0.6 % RH, 25° C.) is reported as 0.0%, the “Change in Mass (%) - dry, Sorption” value ([1]; 0.6 % RH, 25° C.) is reported as 0.0% and the “Change in Mass (%) - dry, Desorption” value ([1]; 10.2 % RH, 25° C.) is reported as 2.9%. The “Change in Mass (%) - dry, Sorption” value ([1]; 10.2 % RH, 25° C.) was 2.8%, the “Change in Mass (%) - dry, Desorption” value ([1]; 19.6 % RH, 25° C.) was 2.9% and the “Change in Mass (%) - dry, Sorption” value ([1]; 19.6 % RH, 25° C.) was 2.9%. For the same compound, the “Change in Mass (%) - dry, Desorption” value ([1]; 29.4 % RH, 25° C.) was 3.0%, the “Change in Mass (%) - dry, Sorption” value ([1]; 29.4 % RH, 25° C.) was 3.0% and the “Change in Mass (%) - dry, Desorption” value ([1]; 38.5 % RH, 25° C.) was 3.0%. The “Change in Mass (%) - dry, Sorption” value ([1]; 38.5 % RH, 25° C.) was 3.0%, the “Change in Mass (%) - dry, Desorption” value ([1]; 48.5 % RH, 25° C.) was 3.0% and the “Change in Mass (%) - dry, Sorption” value ([1]; 48.5 % RH, 25° C.) was 3.0%. The “Change in Mass (%) - dry, Desorption” value ([1]; 57.5 % RH, 25° C.) was 3.1%, the “Change in Mass (%) - dry, Sorption” value ([1]; 57.5 % RH, 25° C.) was 3.1% and the “Change in Mass (%) - dry, Desorption” value ([1]; 67.1 % RH, 25° C.) was 3.1%. For the same compound, the “Change in Mass (%) - dry, Sorption” value ([1]; 67.1 % RH, 25° C.) was 3.1%, the “Change in Mass (%) - dry, Desorption” value ([1]; 77.0 % RH, 25° C.) was 3.2% and the “Change in Mass (%) - dry, Sorption” value ([1]; 77.0 % RH, 25° C.) was 3.1%. The “Change in Mass (%) - dry, Desorption” value ([1]; 87.0 % RH, 25° C.) was 3.2%, the “Change in Mass (%) - dry, Sorption” value ([1]; 87.0 % RH, 25° C.) was 3.2% and the “Change in Mass (%) - dry, Desorption” value ([1]; 94.2 % RH, 25° C.) was 3.3%. The “Change in Mass (%) - dry, Sorption” value ([1]; 94.2 % RH, 25° C.) was 3.3%, the “chemical stability (related substances and optical enantiomer by HPLC, appearance)” value [2] was “stable in the solid state with a minimal increase in impurity levels and no observable change in appearance” and the “physical stability (physical form by XRPD and DSC-TGA)” value [2] was “no observable change in physical form”. The “chemical stability (related substances and optical enantiomer by HPLC, appearance)” value [3] was “stable in the solid state with a minimal increase in impurity levels and no observable change in appearance”, the “physical stability (physical form by XRPD and DSC-TGA)” value [3] was “no observable change in physical form” and the “chemical stability (HPLC versus time 0 control, appearance)” value [4] was “stable in the solid state with no observable chemical change”.
For CN1CCC[C@H]1CCNS(=O)(=O)c1ccc2c(c1)CN(CC1CCCCC1)CC2.O=C(O)/C=C/C(=O)O [hemifumarate dihydrate, 2-(cyclohexylmethyl)-N-{2-[(2S)-1-methylpyrrolidin-2-yl]ethyl}-1,2,3,4-tetrahydroisoquinoline-7-sulfonamide hemifumarate dihydrate], the “Change in Mass (%) - dry, Desorption” value ([1]; 0.6 % RH, 25° C. (Table 8)) was 0.00%, the “Change in Mass (%) - dry, Sorption” value ([1]; 0.6 % RH, 25° C. (Table 8)) was 0.00% and the “Change in Mass (%) - dry, Desorption” value ([1]; 10.1 % RH, 25° C.) was 0.56%. The “Change in Mass (%) - dry, Sorption” value ([1]; 10.1 % RH, 25° C.) was 0.25%, the “Change in Mass (%) - dry, Desorption” value ([1]; 19.4 % RH, 25° C.) was 6.71% and the “Change in Mass (%) - dry, Sorption” value ([1]; 19.4 % RH, 25° C.) was 3.53%. For the same compound, the “Change in Mass (%) - dry, Desorption” value ([1]; 29.0 % RH, 25° C.) was 6.85%, the “Change in Mass (%) - dry, Sorption” value ([1]; 29.0 % RH, 25° C.) was 3.87% and the “Change in Mass (%) - dry, Desorption” value ([1]; 37.8 % RH, 25° C.) was 6.89%. The “Change in Mass (%) - dry, Sorption” value ([1]; 37.8 % RH, 25° C.) was 6.50%, the “Change in Mass (%) - dry, Desorption” value ([1]; 47.7 % RH, 25° C.) was 6.97% and the “Change in Mass (%) - dry, Sorption” value ([1]; 47.7 % RH, 25° C.) was 6.89%. For the same compound, the “Change in Mass (%) - dry, Desorption” value ([1]; 56.4 % RH, 25° C.) was 7.10%, the “Change in Mass (%) - dry, Sorption” value ([1]; 56.4 % RH, 25° C.) was 7.01% and the “Change in Mass (%) - dry, Desorption” value ([1]; 65.7 % RH, 25° C.) was 7.21%. For the same compound, the “Change in Mass (%) - dry, Sorption” value ([1]; 65.7 % RH, 25° C.) was 7.13%, the “Change in Mass (%) - dry, Desorption” value ([1]; 75.3 % RH, 25° C.) was 7.33% and the “Change in Mass (%) - dry, Sorption” value ([1]; 75.3 % RH, 25° C.) was 7.32%. For the same compound, the “Change in Mass (%) - dry, Desorption” value ([1]; 84.8 % RH, 25° C.) was 7.66%, the “Change in Mass (%) - dry, Sorption” value ([1]; 84.8 % RH, 25° C.) was 7.68% and the “Change in Mass (%) - dry, Desorption” value ([1]; 92.0 % RH, 25° C.) was 8.25%. The “Change in Mass (%) - dry, Sorption” value ([1]; 92.0 % RH, 25° C.) was 8.31%.
